Results reported in patent US7851508B2, “Natural product derivatives with antimalarial activity” (Radix Pharmaceuticals, Inc., priority 2008, dated 2010).
Converted amounts (≈) assume the structure as drawn. Read-outs that look alike come from different tables or passages of the source.

Assays:
[1] = tested on: P. falciparum malaria parasite clone D6 (chloroquine sensitive); assay: In vitro anti-malarial activity, [3H]hypoxanthine uptake, D6 clone; assay type: cell-based, Plasmodium falciparum
Excerpt: (§1) For in vitro toxicological studies, the following cell line was chosen: human adult liver epithelial cells (THLE-3). THLE-3 cells express phenotypic characteristics of normal adult liver epithelial cells and constitute a valuable model for pharmacotoxicological studies.
(§2) Two P. falciparum malaria parasite clones, W2 and D6, from Malaria Research and Reference Reagent Resource Center (MR4), were utilized in susceptibility testing. […] Test compounds were initially dissolved in DMSO and diluted 400 fold in RPMI 1640 culture medium supplemented with 25 mM Hepes, 32 mM NaHCO3 and 10% Albumax I (Gibco, N.Y.). These solutions were subsequently serially diluted two-fold with a Beckman Biomek® 1000 Robot (Fullerton, Calif.) over 11 different concentrations. The parasites were exposed to serial dilutions of each compound for 48 hrs and incubated at 37° C. with 5% O2, 5% CO2 and 90% N2 prior to the addition of [^3H]hypoxanthine. After a further incubation of 18 hrs, parasite DNA was harvested from each microtiter well using Packard Filtermate™ 196 Harvester (Meriden, Conn.) onto glass filters. Uptake of [^3H]hypoxanthine was measured with a Packard TopCount Liquid Scintillation Counter (Packard Instrument Co.).

[2] = tested on: P. falciparum malaria parasite clone W2 (chloroquine resistant); assay: In vitro anti-malarial activity, [3H]hypoxanthine uptake, W2 clone; assay type: cell-based, Plasmodium falciparum
Excerpt: as §1, §2

[3] = tested on: human adult liver epithelial cells (THLE-3); assay: In vitro toxicity evaluation, Sulforhodamine B; assay type: cell-based; settings: for IC50: Homo sapiens, read-out: IC50 THLE-3; for Selectivity, IC50 (THLE-3)/IC50 (D6): ratio THLE-3 vs D6
Method: as §1
Human adult liver epithelial cells (THLE-3) was maintained in tissue culture flasks in Waymouth's medium (Gibco, N.Y.) supplemented with 10% fetal bovine serum. Toxicity tests were performed in 96-well tissue culture plates using the protein-binding dye Sulforhodamine B. Test compounds were serially diluted and added to empty wells of the 96-well plate. THLE-3 cells in their culture medium were immediately seeded into the wells. Solvent blanks (no compound) were run in each test. After 72 hours under culture conditions cells were fixed to the plate by layering 50% TCA (4° C.) over the growth media in each well to produce a final TCA concentration of 10%. After incubating for one hour at 4° C., cultures were washed five times with tap water and left air-dried. Wells were stained for 30 min. with 0.4% (w/v) SRB in 1% acetic acid and washed four times with 1% acetic acid. Cultures were left air-dried and bound dye was solubilized with 10 mM Tris base (pH 10.5) for 15 min. on a gyratory shaker at room temperature. A Spectra MAX Plus Microtiter Plate Reader (Molecular Devices, Menlo Park, Calif.) was used to measure the optical density at wavelengths of 490-530 nm.

P. berghei in mice [4] = assay type: in vivo; settings: for toxicity in mice: highest dose tested; for toxicity in mice / blood schizonticidal activity, in words: oral
Method: Drugs were mixed in 0.5% hydroxycellulose 0.1% Tween 80 and administered orally b.i.d. on days 3, 4 and 5 postinfection. CD-1 male or female mice, 5 weeks of age, were infected with 5×10^4 parasitized erythrocytes of Plasmodium berghei KBG-173 mm strain. Blood films were taken on day +6 and weekly thereafter until day +60. Parasitemias were calculated and SD90 value (dose suppressing 90% of the parasites in treated groups compared with the infected non-treated controls) on day +6 postinfection. Mortality data was tabulated for 60 days at which time all mice surviving that were blood film negative were considered cured.
[…] The activity of these compounds were compared with the untreated control: In untreated controls, death occurs within 8-9 days. Compounds which are effective against Plasmodium berghei infection increase the mean survival time of the infected animals when compared with the untreated controls. Mice that survive after thirty days and are free of parasites in blood are considered cured.
Efficacy of the drug is determined by the number of cures at the end of a 30 day period and the increase in mean survival time over the control (ΔMST). The effect of the test drugs also could be determined by the reduction of the parasitemia (percentage of the red blood cells detected with the parasites) over the untreated control on day 6, one day after the treatment is completed. Both these methods yield virtually identical results. If the dose of test compounds are inadequate, after initial clearance, residual parasites will multiply and relapses will occur within thirty days.

P. berghei in mice [5] = assay: Suppressive blood schizontocidal test in mice, subcutaneous single dose; assay type: in vivo, Plasmodium berghei; settings: for Mice surviving 60 days/Mice infected and treated: 72 h after infection
Method: Mice were treated with a single dose of the compound administered subcutaneously 72 h after infection. Number of cures is the number of mice surviving, out of five, 60 days postinfection.

[6] = tested on: Plasmodium berghei KBG-173 in mice; assay: Prophylactic test in mice, oral; assay type: in vivo; settings: for Mice infected and treated/Mice surviving day 60: oral; for protection from malaria (oral prophylactic activity): single dose of 0.5 mg/kg within 2 days pre-infection through 2 days post-infection
Method: Compounds were tested for oral prophylactic activity.
Drugs were mixed in 0.5% hydroxycellulose 0.1% Tween 80 and administered orally b.i.d. either on day 5, 4, 3, 2, or 1 prior to the infection or 1 or 2 days postinfection. CD-I male or female mice, 5 weeks of age, were infected with 5×10^4 parasitized erythrocytes of Plasmodium berghei KBG-173 mm strain. Blood films were taken on day +6 and weekly thereafter until day+30. […]

[7] = oral dose 0.25 mg/kg/day (total dose 0.75 mg/kg)
[8] = oral dose 1.0 mg/kg/day (total dose 3.0 mg/kg)
[9] = oral dose 4.0 mg/kg/day (total dose 12 mg/kg)
[10] = oral dose 16 mg/kg/day (total dose 48 mg/kg)
[11] = oral dose 64 mg/kg/day (total dose 192 mg/kg)
[12] = Plasmodium falciparum, D6; read-out: IC50 D6 Strain
[13] = Plasmodium falciparum, W2; read-out: IC50 W2 Strain
[14] = THLE3, THLE-3 cells, 72 hours, toxicity
[15] = subcutaneous single dose 1 mg/kg
[16] = subcutaneous single dose 2 mg/kg
[17] = subcutaneous single dose 4 mg/kg
[18] = subcutaneous single dose 8 mg/kg
[19] = subcutaneous single dose 16 mg/kg
[20] = subcutaneous single dose 32 mg/kg
[21] = subcutaneous single dose 64 mg/kg
[22] = subcutaneous single dose 128 mg/kg
[23] = day of treatment 1, dose 0.5 mg/kg
[24] = day of treatment 1, dose 2 mg/kg
[25] = day of treatment 1, dose 8 mg/kg
[26] = day of treatment 1, dose 32 mg/kg
[27] = day of treatment 2, dose 0.5 mg/kg
[28] = day of treatment 2, dose 2 mg/kg
[29] = day of treatment 2, dose 8 mg/kg
[30] = day of treatment 2, dose 32 mg/kg
[31] = day of treatment −1, dose 0.5 mg/kg
[32] = day of treatment −1, dose 2 mg/kg
[33] = day of treatment −1, dose 8 mg/kg
[34] = day of treatment −1, dose 32 mg/kg
[35] = day of treatment −2, dose 0.5 mg/kg
[36] = day of treatment −2, dose 2 mg/kg
[37] = day of treatment −2, dose 8 mg/kg
[38] = day of treatment −2, dose 32 mg/kg

| SMILES | Selectivity, IC50 (THLE-3)/IC50 (D6) [3] | Mice surviving 60 days/Mice infected and treated (P. berghei in mice [4]; [7]) | Mice surviving 60 days/Mice infected and treated (P. berghei in mice [4]; [8]) | Mice surviving 60 days/Mice infected and treated (P. berghei in mice [4]; [9]) | Mice surviving 60 days/Mice infected and treated (P. berghei in mice [4]; [10]) | Mice surviving 60 days/Mice infected and treated (P. berghei in mice [4]; [11]) | IC50 [1, 12] [ng/mL] | inhibitory activity against chloroquine sensitive malaria strain (D-6), in words ([1]; in vitro) | IC50 [2, 13] [ng/mL] | inhibitory activity against chloroquine resistant malaria strain (W-2), in words ([2]; in vitro) | IC50 [3, 14] [ng/mL] | toxicity in mice (P. berghei in mice [4]) | blood schizonticidal activity, in words (P. berghei in mice [4]) | activity by the subcutaneous route of administration, in words (P. berghei in mice [5]) | Mice surviving 60 days/Mice infected and treated (P. berghei in mice [5]; [15]) | Mice surviving 60 days/Mice infected and treated (P. berghei in mice [5]; [16]) | Mice surviving 60 days/Mice infected and treated (P. berghei in mice [5]; [17]) | Mice surviving 60 days/Mice infected and treated (P. berghei in mice [5]; [18]) | Mice surviving 60 days/Mice infected and treated (P. berghei in mice [5]; [19]) | Mice surviving 60 days/Mice infected and treated (P. berghei in mice [5]; [20]) | further results |
| --- | --- | --- | --- | --- | --- | --- | --- | --- | --- | --- | --- | --- | --- | --- | --- | --- | --- | --- | --- | --- | --- |
| CCN(CC)CCCC(C)Nc1ccnc2cc(Cl)ccc12 (stereo not shown) [Chloroquine, reference compound] | 463 | 0/7 | 0/7 | 2/7 | 4/7 | 0/7 |  |  |  |  |  |  |  |  |  |  |  |  |  |  | IC50 ([1]; Plasmodium falciparum, D6, read-out: IC50 D6 Strain): 6.3 ng/mL (≈ 0.0197 µM); IC50 ([2]; Plasmodium falciparum, W2, read-out: IC50 W2 Strain): 108 ng/mL (≈ 0.338 µM); IC50 ([3]; THLE3, 72 h): 2920 ng/mL (≈ 9.13 µM) |
| C=C[C@@H]1[C@H]2OCOC2[C@@]23CC24c2nc5ccc(OC)cc5cc2C(=O)N[C@H]4CN13 (stereo partly shown) [Formula II] | 7.0 × 10^4 | 7/7 | 7/7 | 7/7 | 7/7 | 7/7 | 0.29 | equally potent inhibitory activity | 0.33 | equally potent inhibitory activity | 18900 | no mice showed toxicity | very active | excellent activity | 4/5 | 5/5 | 5/5 | 5/5 | 5/5 | 5/5 | Mice surviving 60 days/Mice infected and treated (P. berghei in mice [5]; [21]): 5/5; Mice surviving 60 days/Mice infected and treated (P. berghei in mice [5]; [22]): 5/5; Mice infected and treated/Mice surviving day 60 [6, 23]: 5/5; Mice infected and treated/Mice surviving day 60 [6, 24]: 5/5; Mice infected and treated/Mice surviving day 60 [6, 25]: 5/5; Mice infected and treated/Mice surviving day 60 [6, 26]: 5/5; Mice infected and treated/Mice surviving day 60 [6, 27]: 5/5; Mice infected and treated/Mice surviving day 60 [6, 28]: 5/5; Mice infected and treated/Mice surviving day 60 [6, 29]: 5/5; Mice infected and treated/Mice surviving day 60 [6, 30]: 5/5; Mice infected and treated/Mice surviving day 60 [6, 31]: 5/5; Mice infected and treated/Mice surviving day 60 [6, 32]: 5/5; Mice infected and treated/Mice surviving day 60 [6, 33]: 5/5; Mice infected and treated/Mice surviving day 60 [6, 34]: 5/5; Mice infected and treated/Mice surviving day 60 [6, 35]: 5/5; Mice infected and treated/Mice surviving day 60 [6, 36]: 5/5; Mice infected and treated/Mice surviving day 60 [6, 37]: 5/5; Mice infected and treated/Mice surviving day 60 [6, 38]: 5/5; protection from malaria (oral prophylactic activity) [6]: completely protected |
| C=C[C@@H]1[C@@H](OC)[C@H](OC)[C@@]23CC24c2cc5cc(OC)ccc5nc2C(=O)N[C@H]4CN13 (stereo partly shown) [Formula I] | 4.1 × 10^4 | 7/7 | 7/7 | 7/7 | 7/7 | 7/7 | 0.47 | equally potent inhibitory activity | 0.43 | equally potent inhibitory activity | 19400 | no mice showed toxicity | very active | excellent activity | 4/5 | 5/5 | 5/5 | 5/5 | 5/5 | 5/5 | Mice surviving 60 days/Mice infected and treated (P. berghei in mice [5]; [21]): 5/5; Mice surviving 60 days/Mice infected and treated (P. berghei in mice [5]; [22]): 5/5; Mice infected and treated/Mice surviving day 60 [6, 23]: 5/5; Mice infected and treated/Mice surviving day 60 [6, 24]: 5/5; Mice infected and treated/Mice surviving day 60 [6, 25]: 5/5; Mice infected and treated/Mice surviving day 60 [6, 26]: 5/5; Mice infected and treated/Mice surviving day 60 [6, 27]: 5/5; Mice infected and treated/Mice surviving day 60 [6, 28]: 5/5; Mice infected and treated/Mice surviving day 60 [6, 29]: 5/5; Mice infected and treated/Mice surviving day 60 [6, 30]: 5/5; Mice infected and treated/Mice surviving day 60 [6, 31]: 5/5; Mice infected and treated/Mice surviving day 60 [6, 32]: 5/5; Mice infected and treated/Mice surviving day 60 [6, 33]: 5/5; Mice infected and treated/Mice surviving day 60 [6, 34]: 5/5; Mice infected and treated/Mice surviving day 60 [6, 35]: 5/5; Mice infected and treated/Mice surviving day 60 [6, 36]: 5/5; Mice infected and treated/Mice surviving day 60 [6, 37]: 5/5; Mice infected and treated/Mice surviving day 60 [6, 38]: 5/5; protection from malaria (oral prophylactic activity) [6]: completely protected |
| OC(c1cc(C(F)(F)F)nc2c(C(F)(F)F)cccc12)C1CCCCN1 (stereo not shown) [Mefloquine, reference compound] | 794 |  |  |  |  |  | 3.4 (≈ 0.00899 µM) |  | 5.6 (≈ 0.0148 µM) |  | 2700 (≈ 7.14 µM) |  |  |  |  |  |  |  |  |  |  |
